Measurements reported in ChEMBL document CHEMBL1143717, “Biologically active natural products from Mongolian medicinal plants Scorzonera divaricata and Scorzonera pseudodivaricata” (J Nat Prod, 2007).
Activity calls are given as the source filed them. The rule behind the calls is not given here.

System: Radical scavenging activity
Test: Antioxidant activity assessed as DPPH radical scavenging activity
Assay type: functional

SMILES | Activity
CC1=CC(=O)C2=C(C)C[C@H](OC(=O)CCc3ccc(OC4O[C@H](CO)[C@@H](O)[C@H](O)[C@H]4O)cc3)[C@@H]3[C@H](OC(=O)[C@H]3C)[C@@H]12 (some centres not stated) | inactive
CCCCCC(=O)O[C@H]1[C@H](Oc2cc(CC(=O)CCc3ccc(O)cc3)c(O)c(C(=O)O)c2)O[C@H](CO)[C@@H](O)[C@@H]1O | inactive
